Patent publication US12227501B2, “3-amino-2-[2-(acylamino)pyridin-4-yl]-1,5,6,7-tetrahydro-4h-pyrrolo[3,2-c]pyridin-4-one as CSNK1 inhibitors” (Bayer Aktiengesellschaft, priority 2019, dated 2025)
“And” between values parts separate entries of the source, which are not always exact repeats. Equal entries are not always repeated. Where two headings read alike, the source gives them in different places.

What was measured:
Format in all cases: biochemical
human CSNK1A1 = human CSNK1A1 (Homo sapiens (Human), UniProt P48729); assay: CSNK1A1 High ATP Assay (ADP-Glo, 1 mM ATP); conditions: read-out: CSNK1A1 high ATP assay IC50 [mol/l] (median)
Chain of human CSNK1A1 (P48729 whole entry): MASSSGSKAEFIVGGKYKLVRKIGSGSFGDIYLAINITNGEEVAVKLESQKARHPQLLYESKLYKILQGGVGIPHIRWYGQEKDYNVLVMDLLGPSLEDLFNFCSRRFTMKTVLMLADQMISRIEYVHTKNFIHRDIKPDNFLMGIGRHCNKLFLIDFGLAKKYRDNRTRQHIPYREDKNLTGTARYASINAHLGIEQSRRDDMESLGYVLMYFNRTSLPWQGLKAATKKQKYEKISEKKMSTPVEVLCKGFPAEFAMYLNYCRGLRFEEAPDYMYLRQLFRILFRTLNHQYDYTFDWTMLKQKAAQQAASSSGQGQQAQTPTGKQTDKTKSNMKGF
Summary of the method: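 GST-tagged full-length human CSNK1A1 from baculovirus-infected insect cells (typically about 0.4 ng/μL), pre-incubated with compound 15 min at 22 °C. Reaction with biotinylated peptide biotin-Ahx-KRRRAL-pS-VASLPGL at 1 mM ATP. ADP formed read by ADP-Glo luminescence.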

human CSNK1D = human CSNK1D (Homo sapiens (Human), UniProt P48730); assay: CSNK1D Assay (ADP-Glo, 1 μM ATP); conditions: read-out: CSNK1D IC50 [mol/l] (median)
Chain of human CSNK1D (P48730 whole entry): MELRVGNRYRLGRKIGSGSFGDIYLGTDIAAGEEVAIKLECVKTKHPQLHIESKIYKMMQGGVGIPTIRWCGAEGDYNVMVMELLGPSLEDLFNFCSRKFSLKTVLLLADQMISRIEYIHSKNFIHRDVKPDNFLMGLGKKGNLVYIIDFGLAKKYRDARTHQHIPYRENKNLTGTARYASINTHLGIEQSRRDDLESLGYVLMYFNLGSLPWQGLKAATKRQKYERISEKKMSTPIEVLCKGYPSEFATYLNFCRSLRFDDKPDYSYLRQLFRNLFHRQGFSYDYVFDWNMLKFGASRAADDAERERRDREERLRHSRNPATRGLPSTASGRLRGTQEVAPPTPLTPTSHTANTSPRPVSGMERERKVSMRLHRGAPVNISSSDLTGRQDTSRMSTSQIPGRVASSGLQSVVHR
Summary of the method: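 GST-tagged full-length human CSNK1D from baculovirus-infected insect cells, typically ~0.5 ng/μL, with biotinylated peptide substrate and 1 μM ATP in HEPES pH 7.5 buffer. Compound is preincubated with enzyme 15 min at 22 °C. ADP formed is quantified by ADP-Glo luminescence.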

[1] = biological target: wild-type Epidermal Growth Factor Receptor (EGFR) (Homo sapiens (Human), UniProt P00533); assay: WT-EGFR Kinase Assay (TR-FRET, 2 mM ATP)
Chain of wild-type Epidermal Growth Factor Receptor (EGFR) (P00533 669-1210): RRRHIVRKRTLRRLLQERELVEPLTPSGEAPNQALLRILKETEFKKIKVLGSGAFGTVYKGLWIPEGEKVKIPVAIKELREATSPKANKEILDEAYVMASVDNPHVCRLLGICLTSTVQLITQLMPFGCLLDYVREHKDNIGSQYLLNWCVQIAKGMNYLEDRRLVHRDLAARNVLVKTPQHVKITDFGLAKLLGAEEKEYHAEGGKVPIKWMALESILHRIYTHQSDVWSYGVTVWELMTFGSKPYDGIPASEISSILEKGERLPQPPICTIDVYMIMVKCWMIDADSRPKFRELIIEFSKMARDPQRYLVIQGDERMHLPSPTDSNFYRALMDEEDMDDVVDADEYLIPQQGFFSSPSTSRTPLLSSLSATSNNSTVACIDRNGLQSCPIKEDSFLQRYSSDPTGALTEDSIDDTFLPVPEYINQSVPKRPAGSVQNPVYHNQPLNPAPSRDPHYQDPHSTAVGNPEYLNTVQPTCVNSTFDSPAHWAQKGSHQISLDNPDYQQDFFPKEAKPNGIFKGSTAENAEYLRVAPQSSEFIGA

[2] = EGFR Wildtyp- 2 mM ATP IC50 [mol/l] (median)
[3] = read-out: EGFR Wildtyp- 2 mM ATP IC50 [mol/l] (median)

SMILES | IC50 (human CSNK1A1) | IC50 (human CSNK1D) | IC50 [1, 2] | IC50 [1, 3]
C[C@H](C(=O)Nc1cc(-c2[nH]c3c(c2Nc2ccccc2)C(=O)N(C)CC3)ccn1)c1ccc(F)cc1 (single isomer, unassigned) [Example 5] | 63.4 nM | 12.1 nM |  | 
C[C@@H](C(=O)Nc1cc(-c2[nH]c3c(c2Nc2ccccc2)C(=O)N(C)CC3)ccn1)c1ccc(F)cc1 (single isomer, unassigned) [Example 6] | 1600 nM | 49.6 nM | 16.1 µM and 15.6 µM and 18.2 µM and > 20 µM (2×) and 15.9 µM and 17.1 µM | 
CN1CCc2[nH]c(-c3ccnc(NC(=O)Cc4ccc(F)cc4)c3)c(Nc3ccccc3)c2C1=O [Example 1, N-[4-(3-anilino-5-methyl-4-oxo-4,5,6,7-tetrahydro-1H-pyrrolo[3,2-c]pyridin-2-yl)pyridin-2-yl]-2-(4-fluorophenyl)acetamide] | 28.4 nM | 5.64 nM |  | 1200 nM
CC(C(=O)Nc1cc(-c2[nH]c3c(c2Nc2ccccc2)C(=O)N(C)CC3)ccn1)c1ccc(F)cc1 (stereo not drawn) [Example 4, N-[4-(3-anilino-5-methyl-4-oxo-4,5,6,7-tetrahydro-1H-pyrrolo[3,2-c]pyridin-2-yl)pyridin-2-yl]-2-(4-fluorophenyl)propanamide] | 115 nM | 15.1 nM | 12600 nM and 11200 nM | > 20000 nM
